The values below come from patent EP4818187A1, “COMPOUND AND USE THEREOF” (Ganzhou Hemay Pharmaceutical, Co., Ltd, priority 2023, dated 2025).

Data set [1] concerns Fadu (human pharyngeal squamous cell carcinoma). Briefly: In vitro inhibitory effect against human tumor cells (MTT). The class given is cell-based. The conditions noted are these: 72 h, 3 days. The procedure: (§1) Cells were cultured with 5% CO2 at 37°C and saturated humidity until they reached a logarithmic growth phase (usually adherent cells were nearly fully confluent). After removing adherent cells by trypsin/EDTA digestion, the cells were collected for subsequent experiments.
(§2) The cells were inoculated into a 96-well cell culture plate (hereinafter referred to as the 96-well plate) based on the cell count shown in Table 2, cultured overnight to achieve cell adherence, and then, after different concentrations of the test compound were added, further cultured for a total of 3 days. Finally, the total cell protein in the assay wells was assayed by SRB, or the cell viability was assessed by MTT:
(§3) 2.2 Assaying cell viability by MTT: the modification is based on the method in the literature (J. Carmichael, W. DeGraff, A. Gazdar et al., Evaluation of a tetrazolium-based semiautomated colorimetric assay: assessment of chemosensitivity testing. Cancer Research. 1987, 47: 936-942). Specific method: For well-adherent cells: the medium was pipetted out, 100 µL of a basal medium containing 0.5 mg/mL MTT (medium free of fetal bovine serum (FBS) and other additives) was added to each well, and culture was continued for additional 3 h. The MTT-containing basal medium was pipetted out, and 100 µL of DMSO was added to each well to dissolve formazan, followed by assay at a wavelength of 490 nm.
(§4) For poorly-adherent cells: MTT solution was directly added to a concentration of 0.5 mg/mL, culture was continued for additional 3 h, and an equal volume of triple solvent was added to the system to dissolve formazan, followed by assay at a wavelength of 570 nm.
(§5) 2.3: 1-2 mg of β-glucuronidase was weighed, and dissolved in PBS to prepare 2 mg/mL stock solution. Prior to use, the stock solution was diluted with a complete medium to prepare 12.5 µg/mL enzyme working solution. For assay wells requiring the enzyme, 80 µL of the enzyme working solution was added, with the β-glucuronidase at a concentration of 1 µg/well; and for assay wells not requiring the enzyme, 80 µL of the complete medium was added.
(§6) 1-3 mg of the test compound was weighed, and dissolved in DMSO to prepare 20 mM stock solution. The stock solution was diluted in a 3-fold gradient with DMSO, then diluted 100-fold with RPMI1640 basal medium to obtain 10× working solutions, with a total of 8 concentrations. 20 µL of the 10× working solutions were add to the assay wells, with the final volume of each well of 200 µL, and with the DMSO at a concentration of 0.1%.
(§7) 2.4 Calculation of inhibitory activity of compound: the experiment includes a compound test group, a compound-free positive solvent control group (PC), and a negative solvent control group (NC) without cells and the compound. Inhibition rate = [1−(testvalue−NCmean)/(PCmean−NCmean)] × 100% [formula]
(§8) The mean and SD of the inhibition rate were obtained from replicate assay wells. A curve was plotted with the compound concentrations distributed in a logarithmic form as the abscissa and with the mean inhibition rates as the ordinate, and was fitted with a 4-parameter logistic equation. The compound concentration corresponding to 50% inhibition rate on the curve is the IC50 value. Table 2: Culture medium formulation and cell inoculation concentration for human tumor cell lines

For data set [2], the system named is MDA-MB-468 (human triple-negative breast cancer). Kind of data set: In vitro inhibitory effect against human tumor cells (SRB). The data set is classed as cell-based. The conditions noted are these: MDA-MB-468, 72 h, MDA-MB-468, SRB, 3 days. The procedure:
as §1, §2
(§9) 2.1 Assaying total cell protein by SRB: the modification is based on the method in the literature (V. Vichai and K. Kirtikara. Sulforhodamine B colorimetric assay for cytotoxicity screening. Nature Protocols. 2006, 1: 1112-1116). Specific method: the culture medium was pipetted out from the wells, the cells were fixed with 10% trichloroacetic acid for more than 1 h, and trichloroacetic acid was removed; the cells were washed with H2O, and stained with 0.4% SRB for 15-30 min; after excess SRB was removed, the cells were washed with 1% acetic acid; 100 µl of 10 mM tris(trihydroxymethylaminomethane) was added to dissolve the protein-bound SRB, followed by assay at a wavelength of 570 nm.
as §5, §6, §7, §8

The subject of data set [3] is BxPC-3 (human pancreatic cancer in situ). Briefly: In vitro inhibitory effect against human tumor cells (MTT or SRB). The data set is classed as cell-based. The conditions noted are these: BXPC-3, 72 h, BxPC-3, test method printed MTT (head: SRB), 3 days. The procedure:
as §1, §2, §9, §3, §4, §5, §6, §7, §8

For data set [4], the system named is HCT116 (human colorectal cancer). Briefly: In vitro inhibitory effect against human tumor cells (MTT). The class given is cell-based. The conditions noted are these: HCT-116, 72 h, 3 days. The procedure:
as §1, §2, §3, §4, §5, §6, §7, §8

Data set [5] has as its system NCI-H1975 (human non-small cell lung cancer). The data set is described as above. The data set is classed as cell-based. The conditions noted are these: NCI-H1975, 72 h, 3 days. The procedure: as §1, §2, §3, §4, §5, §6, §7, §8
Data set [6] concerns SK-OV-3 (human ovarian cancer). Described as above. The class given is cell-based. The conditions noted are these: SK-OV-3, 72 h, SK-OV-3, MTT, 3 days. The procedure: as §1, §2, §3, §4, §5, §6, §7, §8
Data set [7] deals with 22RV1 (human prostate cancer). Kind of data set: In vitro inhibitory effect against human tumor cells (SRB). The data set is classed as cell-based. The conditions noted are these: 22Rv1, 72 h, 22RV1, SRB, 3 days. The procedure: as §1, §2, §9, §5, §6, §7, §8
Data set [8] concerns A375 (human malignant melanoma). Described as above. The data set is classed as cell-based. The conditions noted are these: A-375, 72 h, 3 days. The procedure: as §1, §2, §9, §5, §6, §7, §8
Data set [9] relates to HepG2 (human liver cancer cell). The description is as above. The conditions noted are these: HepG2, 72 h, 3 days. The class given is cell-based. The procedure: as §1, §2, §9, §5, §6, §7, §8
In data set [10] the test system is human ovarian cancer SK-OV-3. Kind of data set: Biological Example 5: in vivo xenograft model of human ovarian cancer SK-OV-3. Set-up: species or system Balb/c-nu nude mice. The conditions noted are these: SK-OV-3 xenograft, nude mice. (In general: Xenograft models place foreign cells or tissue in a host animal.)
The test system of data set [11] is human non-small cell lung cancer NCI-H1975. Briefly: Biological Example 9: in vivo xenograft model of human non-small cell lung cancer NCI-H1975. Further details: species or system Balb/c-nu nude mice. The conditions noted are these: nude mice.
Where [12] appears, read: With addition of βGU (1 µg/well).

Marks after values point to notes of the source that are not given here.

In general, IC50 refers to the concentration that gives 50% inhibition. Low values mean inhibition by little substance, high ones a need for much substance.

Take `CC[C@H](C)[C@@H]([C@@H](CC(=O)N1CCC[C@H]1[C@H](OC)[C@@H](C)C(=O)N[C@H](C)[C@@H](O)c1ccccc1)OC)N(C)C(=O)[C@@H](NC(=O)[C@H](C(C)C)N(C)Cc1ccc(O[C@@H]2O[C@H](C(=O)O)[C@@H](O)[C@H](O)[C@H]2O)cc1OCc1cn(CCCCCC(=O)Nc2ccc(-c3ccc(/N=N/c4ccc5c(S(=O)(=O)O)cc(S(=O)(=O)O)c(N)c5c4O)c(C)c3)cc2C)nn1)C(C)C` [Example compound 3]: the IC50 was found to be 7.8 nM in data set [1] (setting [12]); 159 nM in data set [1] (βGU-free); 0.77 nM in data set [2] (setting [12]); 50 nM in [2] (βGU-free); 9.7 nM in data set [3] (setting [12]); 106 nM in data set [3] (βGU-free).
As to `CC[C@H](C)[C@@H]([C@@H](CC(=O)N1CCC[C@H]1[C@H](OC)[C@@H](C)C(=O)N[C@H](C)[C@@H](O)c1ccccc1)OC)N(C)C(=O)[C@@H](NC(=O)[C@H](C(C)C)[N+](C)(CC)Cc1ccc(O[C@@H]2O[C@H](C(=O)[O-])[C@@H](O)[C@H](O)[C@H]2O)cc1OCc1cn(CCOCCC(=O)Nc2ccc(-c3ccc(/N=N/c4ccc5c(S(=O)(=O)[O-])cc(S(=O)(=O)[O-])c(N)c5c4O)c(C)c3)cc2C)nn1)C(C)C.[Na+].[Na+]` (stereo partly drawn) [Example compound 8], the half-inhibitory concentration (IC50) in [1] (setting [12]) stood at 0.79 nM; in data set [1] (βGU-free), 19 nM; in data set [4] (setting [12]) it was 2.1 nM; in [4] (βGU-free), 51 nM; in [5] (setting [12]) it was 3.4 nM; in data set [5] (βGU-free), 72 nM. In addition, the 50% inhibitory concentration (IC50) in data set [6] (setting [12]) stood at 2.6 nM; in data set [6] (βGU-free) it was 61 nM; in data set [7] (setting [12]), 3 nM; in [7] (βGU-free), 63 nM; in data set [8] (setting [12]), 2.4 nM; in [8] (βGU-free) it was 43 nM. Moreover, the IC50 turned out to be 4 nM in data set [9] (setting [12]), 86 nM in data set [9] (βGU-free), 0.54 nM in data set [3] (setting [12]) and 21 nM in [3] (βGU-free). The “Final body weight change (%)” value in [10] (0.8 mg/kg i.v. qw×3) is given as 4.6%; in data set [11] (0.8 mg/kg i.v. qw×3) it was 4%. Also, the “Maximum body weight change (%)” value was 4.6, d21% in data set [10] (0.8 mg/kg i.v. qw×3) and 4.3, d17% in data set [11] (0.8 mg/kg i.v. qw×3). In addition, the results for the “Relative volume RTV (x±S.D.)” value in [10] (0.8 mg/kg i.v. qw×3) and in data set [11] (0.8 mg/kg i.v. qw×3) were 0.08±0.02 and 0.19±0.27, respectively. Besides, the “T/C (%)” value in [10] (0.8 mg/kg i.v. qw×3) turned out to be 0.7%; in [11] (0.8 mg/kg i.v. qw×3), 2.5%. Also, the “Tumor inhibition rate (%)” value in [10] (0.8 mg/kg i.v. qw×3) is 99.7%; in data set [11] (0.8 mg/kg i.v. qw×3) it was 98.3%. The entries for the “Tumor weight (g, x±S.D.)” value in data set [10] (0.8 mg/kg i.v. qw×3) and in data set [11] (0.8 mg/kg i.v. qw×3) were 0.005 ± 0.003 g and 0.022±0.038* * g, respectively. Moreover, the Animal death entry in data set [10] (0.8 mg/kg i.v. qw×3, group G5, stated to be independent of drug administration (biting and fighting injury)) is recorded as “One animal in group G5 died on day 18”. The “Body weight (g, x±S.D.) End” value in data set [10] (0.8 mg/kg i.v. qw×3, End) came out at 24.1 ± 1.6 g. Moreover, the “Body weight (g, x±S.D.) Start” value in data set [10] (0.8 mg/kg i.v. qw×3, Start) came out at 22.9 ± 1.6 g; in data set [11] (0.8 mg/kg i.v. qw×3, Start) it was 25.3 ± 1.1 g. Besides, the “Body weight (g, x±S.D.) End 24d” value in data set [11] (0.8 mg/kg i.v. qw×3, End 24d) was 26.3 ± 1.5 g.
